# Data from patent publication US20250003968A1, “ACTIVITY-BASED CELL SORTING” (MASSACHUSETTS INSTITUTE OF TECHNOLOGY, priority 2021, published 2025).
# *1 amine or outer side, *2 acyl side, *3 side chain or, on linkers, in order; H or OH if unused. Where no end group is shown, it is not given here. [ ]: non-standard residue; d: D form. The star is where a group is joined. 5FAM = O=C1OC2(c3ccc(O)cc3Oc3cc(O)ccc32)c2ccc(C(=O)*)cc21; Suc = O=C(CCC(=O)[*:2])[*:1]; Cy3 = Cy3 fluorophore label; Cy5 = Cy5 fluorophore label; Ahx = NCCCCCC(=O)O
# Assays:
# [1] = tested on: serine proteases of mouse colon tissue sections; experiment: AZP staining of frozen mouse colon sections; format: biochemical
# Source text: We validated the AZP principle on colon tissue, whose epithelial cells secrete serine proteases including urokinase plasminogen activator (uPA). We therefore synthesized a Cy5-labeled AZP, termed PZ2 (SEQ ID NO:176), containing a serine protease-cleavable linker. Because similar peptides had never been applied directly to frozen tissue sections, it was unknown whether AZPs would nonspecifically bind to the tissue, or whether proteolytic cleavage would be required for AZP binding. We therefore pre-cleaved PZ2 with a serine protease, mesotrypsin (PRSS3) and applied it to a frozen section of mouse colon for 30 minutes. As a binding control, we also applied intact, uncleaved PZ2 to a consecutive section of mouse colon.
# Having verified that proteolytic cleavage induces AZP binding, we next sought to validate whether AZPs could enable localization of protease activity in situ (FIG. 19a). Specifically, it was unknown whether frozen tissue sections would maintain sufficient protease activity to induce probe cleavage or whether cleaved probes would bind at the site of cleavage rather than diffusing to a distant site. We applied PZ2 and a binding control (free polyR-Cy7) to fresh-frozen sections of mouse colon (FIG. 19b). […] These findings verified that protease activity in the tissue section was necessary and sufficient to activate AZPs. Strikingly, we found strong colocalization of PZ2 with E-cadherin, a specific marker of epithelial cells, providing evidence that cleaved AZPs bind at the site of cleavage, rather than diffusing to a distant site (FIG. 19d).
# [2] = tested on: homogenates of prostates from Hi-Myc PCa mice; experiment: Multiplexed bead-coupled substrate screen against prostate homogenates; format: biochemical, mouse; details: pre-treatment of Hi-Myc prostate homogenates
# Experimental: We turned to the Hi-Myc genetically engineered mouse model of PCa, wherein c-Myc is overexpressed in the murine prostate, resulting in invasive PCa. We selected a panel of 18 peptides previously found by our group to be recognized by a diverse array of metallo- and serine proteases dysregulated in PCa^20 and appended each with a unique, mass-encoded reporter molecule. We coupled these barcoded substrates to magnetic beads via a non-cleavable poly(ethylene glycol) (PEG) linker and incubated the bead cocktail against homogenates of prostates from PCa mice and from age-matched healthy controls (FIG. 20a). Beads were pulled down via magnetic separation, and liberated reporter molecules in the supernatant were measured by mass spectrometry, enabling quantification of substrate cleavage. Unsupervised hierarchical clustering of the cleavage data yielded two distinct clusters corresponding to prostates from PCa mice and prostates from healthy mice (FIG. 20b).
# [3] = tested on: tissue-resident proteases in Eml4-Alk lung tissue sections; experiment: In situ zymography with AZPs on fresh-frozen lung tissue sections; format: biochemical, mouse; details: for effect of inhibitor on Z1 tissue labeling: Eml4-Alk lung sections, 1 mM marimastat, 400 μM AEBSF or inhibitor cocktail; for AZP labeling of Eml4-Alk lung tissue: individual AZPs on consecutive sections, 7 weeks after tumor induction
# Experimental: Mice were euthanized by isoflurane overdose. Lungs were then filled with undiluted optimal-cutting-temperature (OCT) compound through catheterization of the trachea; the trachea was subsequently clamped; and lungs were extracted. Individual lobes were dissected and then immediately embedded and frozen in optimal-cutting-temperature (OCT) compound (Sakura).
# Cryosectioning was performed at the Koch Institute Histology Core. Prior to staining, slides were air dried, fixed in ice-cold acetone for 10 minutes, and then air dried. After hydration in PBS (3×5 minutes), tissue sections were blocked in protease assay buffer (50 mM Tris, 300 mM NaCl, 10 mM CaCl2), 2 mM ZnCl2, 0.02% (v/v) Brij-35, 1% (w/v) BSA, pH 7.5) for 30 minutes at room temperature. Blocking buffer was aspirated, and solution containing fluorescently labeled AZPs (1 μM each AZP) and a free poly-arginine control (polyR, 0.1 μM) diluted in the protease assay buffer was applied. Slides were incubated in a humidified chamber at 37° C. for 4 hours. For inhibited controls, 400 μM AEBSF (Sigma Aldrich), 1 mM marimastat (Sigma Aldrich), or protease inhibitor cocktail (P8340, Sigma Aldrich) spiked with AEBSF and marimastat was added to the buffer at both the blocking and cleavage assay steps. For uninhibited conditions, dimethyl sulfoxide (DMSO) was added to the assay buffer to a final concentration of 3% (v/v). For co-staining experiments, primary antibodies (E-cadherin, AF748, R&D Systems, 4 μg/mL; vimentin, ab92547, Abcam, 0.5 μg/mL; CD31, AF3628, R&D Systems, 10 μg/mL; desmin, ab227651, Abcam, 1.32 μg/mL) were included in the AZP solution. Following AZP incubation, slides were washed in PBS (3×5 minutes), stained with Hoechst (5 μg/mL, Invitrogen) and the appropriate secondary antibody if relevant (Invitrogen, 1:500), washed in PBS (3×5 minutes), and mounted with ProLong™ Diamond Antifade Mountant (Invitrogen). Slides were scanned on a Pannoramic 250 Flash III whole slide scanner (3DHistech).
# The Z1 AZP (10 μmol/L) was incubated with recombinant fibroblast activation protein (FAP) in FAP assay buffer (50 mM Tris, 1 M NaCl, pH 7.5) overnight at 37° C. to run the cleavage reaction to completion. After precleavage with recombinant FAP, the AZP solution was diluted to a final peptide concentration of 0.1 μM in protease assay buffer. Cognate intact Z1 AZP (1 μmol/L) and precleaved Z1 AZP, each with a free polyR control (0.1 μM), were applied to fresh-frozen Eml4-Alk lung tissue sections (slide preparation described above) and incubated at 37° C. for 4 hours. After AZP incubation, slides were washed, stained with Hoechst, mounted, and scanned.
# AZP and immunofluorescence staining was quantified in QuPath™ 0.2.3[53] and in ImageJ™ (NIH, v1.53). To perform cell-by-cell analysis, cell segmentation was performed using automated cell detection on the DAPI (nuclear) channel. For quantification of activity inhibition, AZP staining was calculated as a fold change of the mean nuclear AZP signal over the mean nuclear polyR signal. All nuclei within an individual tumor were averaged across that given tumor. Nuclei with a polyR intensity of less than 3 were excluded from analysis. For quantification of AZP intensity based on cell morphology and marker expression, cells were annotated as “vimentin-positive, spindle” if they were spindle-shaped and expressed vimentin; “E-cadherin-positive, cuboidal” if they were cuboidal-shaped and expressed E-cadherin; “vimentin-positive, round” if they were rounded and expressed vimentin. A random forest classifier was trained on all annotated cells (at least 20 cells per class) using multiple cellular features, including nuclear area and eccentricity, and mean cellular fluorescence intensity across all channels. The trained classifier was then applied to all cells across all tumors in the tissue section, and mean cellular fluorescence intensity was quantified.
# [4] = tested on: pulmonary protease activity; experiment: In vivo activity-based nanosensors, urinary reporters by LC-MS/MS; parameters: species or system mouse; details: within 3 days of treatment initiation; 20 mg/kg daily oral gavage
# Experimental: The urinary reporter glutamate-fibrinopeptide B (Glu-Fib) was mass barcoded for detection by mass spectrometry. Nanosensors were dosed (50 μL total volume, 20 μM each nanosensor) in mannitol buffer (0.28 M mannitol, 5 mM sodium phosphate monobasic, 15 mM sodium phosphate dibasic, pH 7.0-7.5) by intratracheal intubation. Anesthesia was induced by isoflurane inhalation, and mice were monitored during recovery. For intratracheal instillation, a volume of 50 μL was administered by passive inhalation following intratracheal intubation with a 22G flexible plastic catheter (Exel). […]
# LC-MS/MS was performed by Syneos Health using a Sciex™ 6500 triple quadrupole instrument. […] Samples were extracted by solid-phase extraction and analyzed by multiple reaction monitoring by LC-MSMS to quantify concentration of each Glu-Fib mass variant. Analyte quantities were normalized to a spiked-in internal standard and concentrations were calculated from a standard curve using peak area ratio (PAR) to the internal standard. […]
# Analyses of urinary reporter data were conducted using the analytic pipelines of the protease activity analysis (PAA) package [52], a publicly available Python package designed to process and visualize enzymatic activity datasets. […] Ten independent train-test trials were run for each classification problem, and classification performance was evaluated with ROC statistics. […]
# [5] = tested on: MMP activity in Hi-Myc prostate tissue sections; experiment: AZP staining of fresh-frozen Hi-Myc prostate sections; format: biochemical, mouse
# Source text: It was unknown whether AZPs could enable in situ localization of the cleavage of peptides discovered in a screen of bulk homogenates. We therefore synthesized a new AZP (PZ19: SEQ ID NO:186) and applied it to fresh-frozen sections of prostates from Hi-Myc mice (FIG. 21a). With the exception of the protease-cleavable linker and fluorophore, PZ19 was identical in design to the serine protease-responsive PZ2. […] PZ19 labeling was abrogated by the MMP inhibitor marimastat (FIG. 21b middle row), though the free polyR control was unchanged.
# It was unknown whether AZPs could be used in conjunction with antibodies to enable dual zymography and immunofluorescence labeling. […] Further, PZ19 labeling and co-localization with Ki67 was abrogated by addition of marimastat (FIG. 21d).
# [6] = tested on: human PCa tissue microarray; experiment: AZP staining of fresh-frozen human PCa tissue microarray (TMA); format: biochemical; details: for labeling of PCa tissue relative to normal prostates: AZP signal normalized to polyR, normal n=4, PCa n=24 cores; for labeling with vs without broad-spectrum cocktail of protease inhibitors: consecutive TMA sections
# Source text: Two AZPs incorporating MMP-responsive substrates, PZ16 (SEQ ID NO:184) and PZ19, and two AZPs incorporating serine protease-responsive substrates, Z2 (SEQ ID NO:172) and PZ11 (SEQ ID NO:180), were selected for evaluation. We applied these probes, along with a free polyR control, to a frozen human PCa TMA that contained biopsies from normal prostates and PCa tumors across a range of Gleason scores.
# To determine whether AZP binding was dependent on proteolysis, for each probe a consecutive TMA section was treated with a broad-spectrum cocktail of protease inhibitors.
# We then investigated whether AZPs preferentially labeled PCa tissue relative to normal prostates. […] AZP activation and tissue staining across the TMA was quantitatively assessed by normalizing AZP signal intensity to polyR signal to account for differing binding propensities within a single core and across individual specimens. […] We further assessed the classification accuracy of these two in situ probes using receiver operating characteristic (ROC) curves.
# [7] = tested on: T1, PZ2, Cy5-labeled AZP containing a serine protease-cleavable linker
# T1 sequence: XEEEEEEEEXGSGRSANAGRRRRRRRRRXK
# [8] = tested on: T2, quenched probe Q1, incorporating the substrate S1
# T2 sequence: GGPQGIWGQC
compound,measurement,setting,value
"Cl.NCCc1ccc(S(=O)(=O)F)cc1 [AEBSF, 4-(2-aminoethyl)benzenesulfonyl fluoride hydrochloride, reference compound]",effect of inhibitor on PZ2 staining,"[1]; four-hour incubation, mouse colon",abrogated
same,effect of inhibitor on cleavage of PM19,[2],minimally affected cleavage
same,effect of inhibitor on Z1 tissue labeling,[3],completely abrogated Z1 tissue labeling to the level of broad-spectrum inhibition
CCc1cc2c(cc1N1CCC(N3CCOCC3)CC1)C(C)(C)c1[nH]c3cc(C#N)ccc3c1C2=O [alectinib],reporters exhibiting differential enrichment in the urine of vehicle- versus alectinib-treated mice,[4],12 of 14
"CNC(=O)[C@@H](NC(=O)[C@H](CC(C)C)[C@H](O)C(=O)NO)C(C)(C)C [marimastat, reference compound]",effect of inhibitor on cleavage of PM19,[2],fully inhibited cleavage of PM19
same,effect of inhibitor on PZ19 labeling,[5]; Hi-Myc prostate sections,abrogated
same,effect of inhibitor on Z1 tissue labeling,[3],did reduce Z1 signal
U-eeeeeeee-X-GGLVPRGSGG-rrrrrrrrr-X-K(Cy5) (Suc-[dE][dE][dE][dE][dE][dE][dE][dE][Ahx]GGLVPRGSGG[dR][dR][dR][dR][dR][dR][dR][dR][dR][Ahx]K(Cy5)) [Z2],labeling of PCa tissue relative to normal prostates,[6],preferentially label PCa tissue
same,labeling with vs without broad-spectrum cocktail of protease inhibitors,[6],protease-dependent labeling
U-eeeeeeee-X-GPVPLSLVMG-rrrrrrrrr-X-K(5FAM) (Suc-[dE][dE][dE][dE][dE][dE][dE][dE][Ahx]GPVPLSLVMG[dR][dR][dR][dR][dR][dR][dR][dR][dR][Ahx]K(5FAM)) [PZ19],labeling of PCa tissue relative to normal prostates,[6],no significant difference between PCa and normal cores
same,labeling with vs without broad-spectrum cocktail of protease inhibitors,[6],no difference between the uninhibited and inhibited conditions
same,probe labeling of Hi-Myc prostate sections,[5]; fresh-frozen sections,PZ19 labeling in histologically normal glands of the Hi-Myc prostate
same,PZ19 labeling of normal mouse prostate,[5]; histologically similar region of healthy prostate,reduced PZ19 labeling
U-eeeeeeee-X-GSGRSANAG-rrrrrrrrr-X-K(Cy5) (Suc-[dE][dE][dE][dE][dE][dE][dE][dE][Ahx]GSGRSANAG[dR][dR][dR][dR][dR][dR][dR][dR][dR][Ahx]K(Cy5)) [PZ2],probe staining of fresh-frozen mouse colon sections,[1]; four-hour incubation,strong PZ2 staining
same,fluorescence of colon sections treated with intact probe,"[1]; intact, 30 minutes",minimal fluorescence
same,fluorescence of colon sections treated with pre-cleaved probe,"[1]; pre-cleaved with mesotrypsin (PRSS3), 30 minutes",notable fluorescent signal throughout
"U-eeeeeeee-X-GsGrsanaG-rrrrrrrrr-X-K(Cy5) (Suc-[dE][dE][dE][dE][dE][dE][dE][dE][Ahx]G[dS]G[dR][dS][dA][dN][dA]G[dR][dR][dR][dR][dR][dR][dR][dR][dR][Ahx]K(Cy5)) [dPZ2, AZP with a non-cleavable d-stereoisomer linker]",probe staining of fresh-frozen mouse colon sections,[1]; four-hour incubation,no Cy5 fluorescence
UeeeeeeeeXGGLGPKGQTGGrrrrrrrrrX-k(Cy3) (Suc-[dE][dE][dE][dE][dE][dE][dE][dE][Ahx]GGLGPKGQTGG[dR][dR][dR][dR][dR][dR][dR][dR][dR][Ahx][dK](Cy3)) [Z7],AZP labeling of Eml4-Alk lung tissue,[3],"protease-mediated, tumor-specific labeling"
UeeeeeeeeXGGPQGIWGQGrrrrrrrrrX-k(Cy5) (Suc-[dE][dE][dE][dE][dE][dE][dE][dE][Ahx]GGPQGIWGQG[dR][dR][dR][dR][dR][dR][dR][dR][dR][Ahx][dK](Cy5)) [Z1],Z1 staining in CD31-high cells of Eml4-Alk sections relative to CD31-high healthy and CD31-low cells,[3]; Eml4-Alk and healthy lung sections,significantly increased
same,Z1 intensity in vimentin-positive spindle-like cells relative to E-cadherin-positive or vimentin-positive rounded cells,[3]; Eml4-Alk tumors,increased Z1 intensity
same,Z1 staining of Eml4-Alk tumors,[3]; Eml4-Alk tumors vs free polyR binding control,"strong, spindle-like staining"
same,Z1 staining of healthy lungs,[3]; healthy lung sections,undetectable
same,AZP labeling of Eml4-Alk lung tissue,[3],"protease-mediated, tumor-specific labeling"
same,tissue labeling pattern of intact Z1,"[3]; intact Z1 1 μmol/L, 37° C. 4 hours, Eml4-Alk tumors",maintained its spindle-like spatial pattern
same,tissue labeling pattern of FAP-precleaved Z1,"[3]; precleaved with recombinant FAP, 0.1 μM, Eml4-Alk tumors","diffuse, uniform labeling that mirrored that of a free polyR"
mesotrypsin (PRSS3),"in vitro pre-cleavage of the probe, read out by tissue fluorescence",[7],"We therefore pre-cleaved PZ2 with a serine protease, mesotrypsin (PRSS3)"
recombinant fibroblast activation protein (FAP),fluorescence activation monitored over time (cleavage of quenched probe),[8],Fibroblast activation protein (FAP) cleaves S1 in vitro
